Where two headings read alike, the source gives them in different places.

Assay [1] deals with phosphorylated 4E-BP1 Thr37/46 (p4E-BP1 Thr37/46), mTORC1 activity, PC3 cells. The assay can be described thus: mTOR target engagement assay, immunofluorescent cell-based, p4E-BP1 Thr37/46 readout (mTORC1 activity). As to conditions: read-out: p4E-BP1 Thr37/46 IC50. Summed up:
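PTEN-mutant PC3 prostate cells were treated with serially diluted compound in 5% FBS F12 medium (0.25% DMSO) for ninety minutes at 37° C, glyoxal-fixed, then immunostained overnight at 4° C for p4E-BP1 Thr37/46 with an Alexa Fluor 488 secondary. IC50 came from four-parameter fits of fluorescence, DMSO-only wells defining 100%.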

Assay [2] concerns phosphorylated AKT Ser473 (pAKT S473), mTORC2 activity, PC3 cells. The assay can be described thus: mTOR target engagement assay, immunofluorescent cell-based, pAKT S473 readout (mTORC2 activity). An outline of the steps: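 After blocking, cells were stained overnight at 4 °C with anti-pAKT S473 antibody, then a fluorescent secondary; inhibition was read as reduced fluorescence intensity.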

Setting [3] is: Homo sapiens, PC-3, Table 3-1, PC3 cells.
The mark [4] stands for this setting: Homo sapiens, PC-3, PC3 cells, compound treatment ninety minutes at 37° C.
Where [5] appears, read: Homo sapiens, PC-3, Table 7-8, PC3 cells.
The mark [6] stands for this setting: PC3 cells, compound treatment ninety minutes at 37° C.

As for `Cc1csc(-c2ccc(-c3cnn4c(N)c(S(C)(=O)=O)c([C@@H]5C[C@H]6CC[C@@H](C5)N6C(=O)c5nnc[nH]5)nc34)cn2)n1` [Compound 3.192, ((1R,3s,5S)-3-(7-amino-6-(methylsulfonyl)-3-(6-(4-methylthiazol-2-yl)pyridin-3-yl)pyrazolo[1,5-a]pyrimidin-5-yl)-8-azabicyclo[3.2.1]octan-8-yl)(4H-1,2,4-triazol-3-yl)methanone], the IC50 in assay [1] (setting [3]) and in assay [2] (setting [3]) was 100 to 1000 nM each time.

`CC(=O)c1c([C@@H]2C[C@H]3CC[C@@H](C2)N3C(=O)CO)nc2c(-c3ccc(-c4c(F)cccc4F)nc3)cnn2c1N` [Compound 1.1.171, 1-((1R,3s,5S)-3-(6-acetyl-7-amino-3-(6-(2,6-difluorophenyl)pyridin-3-yl)pyrazolo[1,5-a]pyrimidin-5-yl)-8-azabicyclo[3.2.1]octan-8-yl)-2-hydroxyethanone]: the IC50 in assay [1] (setting [4]) and in assay [2] (setting [4]) was 1 to 100 nM throughout.

On to `CC(=O)c1c(C2CC3CCC(C2)N3C(=O)c2nnc(C)[nH]2)nc2c(-c3ccc(-c4ccccc4)nc3)cnn2c1N` [Compound 1.1.22, 1-(7-amino-5-((1R,3s,5S)-8-(3-methyl-1H-1,2,4-triazole-5-carbonyl)-8-azabicyclo[3.2.1]octan-3-yl)-3-(6-phenylpyridin-3-yl)pyrazolo[1,5-a]pyrimidin-6-yl)ethanone], for which the IC50 in assay [1] (setting [4]) and in assay [2] (setting [4]) was 1 to 100 nM in each case.

Take `Nc1c(C2CC2)c(C2CC3CCC(C2)N3C(=O)c2nnc(N3CCOCC3)[nH]2)nc2c(-c3ccc(-c4ccccc4)nc3)cnn12` [Compound 8.105, ((1R,3s,5S)-3-(7-amino-6-cyclopropyl-3-(6-phenylpyridin-3-yl)pyrazolo[1,5-a]pyrimidin-5-yl)-8-azabicyclo[3.2.1]octan-8-yl)(5-morpholino-4H-1,2,4-triazol-3-yl)methanone]: the IC50 lay within 1000 to 10000 nM in assay [1] (Homo sapiens, PC-3, PC3 cells) and 1000 to 10000 nM in assay [2] (Homo sapiens, PC-3, PC3 cells).

For the molecule `COCc1c([C@@H]2C[C@H]3CC[C@@H](C2)N3C(=O)c2nnc[nH]2)nc2c(-c3ccc(-c4ccccc4)nc3)cnn2c1N` [Compound 5.4, ((1R,3s,5S)-3-(7-amino-6-(methoxymethyl)-3-(6-phenylpyridin-3-yl)pyrazolo[1,5-a]pyrimidin-5-yl)-8-azabicyclo[3.2.1]octan-8-yl)(4H-1,2,4-triazol-3-yl)methanone], the IC50 in assay [1] (setting [4]) and in assay [2] (setting [4]) was 1 to 100 nM throughout.

As for `CC(=O)c1c([C@@H]2C[C@H]3CC[C@@H](C2)N3C(=O)c2nnc[nH]2)nc2c(-c3ccc(-c4ccccc4F)nc3)cnn2c1N` [Compound 1.1.145, 1-(5-((1R,3s,5S)-8-(4H-1,2,4-triazole-3-carbonyl)-8-azabicyclo[3.2.1]octan-3-yl)-7-amino-3-(6-(2-fluorophenyl)pyridin-3-yl)pyrazolo[1,5-a]pyrimidin-6-yl)ethanone], the IC50 in assay [1] (setting [4]) and in assay [2] (setting [4]) was 1 to 100 nM throughout.

`COc1ccc(-c2ccc(-c3cnn4c(N)cc([C@@H]5C[C@H]6CC[C@@H](C5)N6C(=O)CO)nc34)cn2)cc1CO` [Compound 2.7, 1-((1R,3s,5S)-3-(7-amino-3-(6-(3-(hydroxymethyl)-4-methoxyphenyl)pyridin-3-yl)pyrazolo[1,5-a]pyrimidin-5-yl)-8-azabicyclo[3.2.1]octan-8-yl)-2-hydroxyethanone]: the IC50 in assay [1] (setting [4]) and in assay [2] (setting [4]) was 100 to 1000 nM each time.

Turning to `CC(=O)c1c([C@@H]2C[C@H]3CC[C@@H](C2)N3C(=O)c2nnc[nH]2)nc2c(-c3ccc(C4(O)CCCC4)nc3)cnn2c1N` [Compound 7.50, 1-(5-((1R,3s,5S)-8-(4H-1,2,4-triazole-3-carbonyl)-8-azabicyclo[3.2.1]octan-3-yl)-7-amino-3-(6-(1-hydroxycyclopentyl)pyridin-3-yl)pyrazolo[1,5-a]pyrimidin-6-yl)ethanone], the IC50 in assay [1] (setting [5]) and in assay [2] (setting [5]) was 1 to 100 nM each time.

As to `CC(=O)c1c([C@@H]2C[C@H]3CC[C@@H](C2)N3C(=O)c2nnc[nH]2)nc2c(-c3ccc4ccc(F)cc4c3)cnn2c1N` [Compound 1.1.38, 1-(5-((1R,3s,5S)-8-(4H-1,2,4-triazole-3-carbonyl)-8-azabicyclo[3.2.1]octan-3-yl)-7-amino-3-(7-fluoronaphthalen-2-yl)pyrazolo[1,5-a]pyrimidin-6-yl)ethanone], the IC50 in assay [1] (setting [6]) was 1 to 100 nM; in assay [2] (setting [6]), 100 to 1000 nM.

`CC(C)S(=O)(=O)c1c([C@@H]2C[C@H]3CC[C@@H](C2)N3C(=O)c2nnc[nH]2)nc2c(-c3ccc(-c4ccccc4)nc3)cnn2c1N` [Compound 3.163, ((1R,3s,5S)-3-(7-amino-6-(isopropylsulfonyl)-3-(6-phenylpyridin-3-yl)pyrazolo[1,5-a]pyrimidin-5-yl)-8-azabicyclo[3.2.1]octan-8-yl)(4H-1,2,4-triazol-3-yl)methanone]: the IC50 in assay [1] (setting [3]) and in assay [2] (setting [3]) was 100 to 1000 nM in each case.

For the molecule `CS(=O)(=O)c1c([C@@H]2C[C@H]3CC[C@@H](C2)N3C(=O)CO)nc2c(-c3ccc(-c4ccncc4)nc3)cnn2c1N` [Compound 3.65, 1-((1R,3s,5S)-3-(3-(2,4′-bipyridin-5-yl)-7-amino-6-(methylsulfonyl)pyrazolo[1,5-a]pyrimidin-5-yl)-8-azabicyclo[3.2.1]octan-8-yl)-2-hydroxyethanone], the IC50 in assay [1] (setting [3]) and in assay [2] (setting [3]) was 1000 to 10000 nM in each case.

On to `CS(=O)(=O)c1c(C2CC3CCC(C2)N3C(=O)c2nnc[nH]2)nc2c(-c3ccc(-c4ccccc4)[n+]([O-])c3)cnn2c1N` [Compound 3.6, 5-(5-((1R,3s,5S)-8-(1H-1,2,4-triazole-3-carbonyl)-8-azabicyclo[3.2.1]octan-3-yl)-7-amino-6-(methylsulfonyl)pyrazolo[1,5-a]pyrimidin-3-yl)-2-phenylpyridine 1-oxide], for which the IC50 in assay [1] (setting [3]) and in assay [2] (setting [3]) was 100 to 1000 nM in each case.

For the molecule `CCCS(=O)(=O)c1c([C@@H]2C[C@H]3CC[C@@H](C2)N3C(=O)c2nnc[nH]2)nc2c(-c3ccc(-c4ccccc4)nc3)cnn2c1N` [Compound 3.162, ((1R,3s,5S)-3-(7-amino-3-(6-phenylpyridin-3-yl)-6-(propylsulfonyl)pyrazolo[1,5-a]pyrimidin-5-yl)-8-azabicyclo[3.2.1]octan-8-yl)(4H-1,2,4-triazol-3-yl)methanone], the IC50 in assay [1] (setting [3]) and in assay [2] (setting [3]) was 100 to 1000 nM in each case.

Take `CC(=O)c1c([C@@H]2C[C@H]3CC[C@@H](C2)N3C(=O)c2nnc[nH]2)nc2c(-c3ccc(C(C)O)nc3)cnn2c1N` (stereo partly drawn) [Compound 7.4, 1-(5-((1R,3s,5S)-8-(4H-1,2,4-triazole-3-carbonyl)-8-azabicyclo[3.2.1]octan-3-yl)-7-amino-3-(6-(1-hydroxyethyl)pyridin-3-yl)pyrazolo[1,5-a]pyrimidin-6-yl)ethanone]: the IC50 in assay [1] (setting [4]) and in assay [2] (setting [4]) was 1 to 100 nM each time.

For the molecule `COc1ccc(-c2ccc(-c3cnn4c(N)c(C5CC5)c([C@@H]5C[C@H]6CC[C@@H](C5)N6C(=O)c5nnc[nH]5)nc34)cn2)c(F)c1F` [Compound 4.10, ((1R,3a,5S)-3-(7-amino-6-cyclopropyl-3-(6-(2,3-difluoro-4-methoxyphenyl)pyridin-3-yl)pyrazolo[1,5-a]pyrimidin-5-yl)-8-azabicyclo[3.2.1]octan-8-yl)(4H-1,2,4-triazol-3-yl)methanone], the IC50 in assay [1] (setting [4]) and in assay [2] (setting [4]) was 1 to 100 nM throughout.

The values are drawn from US9227971B2, “Pyrazolo[1,5-a]pyrimidine compounds as mTOR inhibitors” (Merck Sharp & Dohme Corp., priority 2010, dated 2016).
